From ChEMBL document CHEMBL1127265, “Synthesis of a novel ring contracted artemisinin derivative” (1994)

Species: Mus musculus
Assay: Blood schizonticidal activity in mice model with Plasmodium berghei k-173 infection was determined
Assay type: functional

Compound	ED90
C[C@@H]1CCC2[C@]34OOC(C)(CCC13)O[C@H]4O[C@]2(C)CO (single isomer, unassigned)	25 mg/kg
CC1OC2OC3(C)CCC4[C@H](C)CCC([C@H]1C)[C@@]24OO3.O (single isomer, unassigned)	10 mg/kg
C[C@@H]1CCC2[C@@H](C)[C@H](OC[C@@]3(C)OC4OC5(C)CCC6[C@H](C)CCC3[C@@]46OO5)OC3OC4(C)CCC1[C@]32OO4 (single isomer, unassigned)	2.5 mg/kg
C[C@@H]1CCC2[C@@H](C)[C@@H](OC[C@]3(C)OC4OC5(C)CCC6[C@@H](C)CCC3[C@]46OO5)OC3OC4(C)CCC1[C@]32OO4 (single isomer, unassigned)	1.25 mg/kg
C[C@@H]1CCC2[C@]34OOC(C)(CCC13)O[C@H]4O[C@]2(C)C=O (single isomer, unassigned)	25 mg/kg
CCO[C@H]1O[C@@H]2O[C@@]3(C)CC[C@H]4[C@H](C)CC[C@@H]([C@H]1C)[C@@]24OO3 [ARTEMOTIL]	1.25 mg/kg
